Test results as given in patent US5677326A, “Indoline compound and 5-HT3 receptor antagonist containing the same as active ingredient” (Tokyo Tanabe Company Limited, priority 1993, dated 1997).
Where a name gives a salt, the structure may show the parent alone. Read-outs that look alike come from different tables or passages of the source. Blank lines part the entries; values can stand above or below the compound they belong to.

What was measured:
[1] = system: restraint stress-induced diarrhea; test: Inhibiting effect on restraint stress-induced diarrhea (intraabdominal administration); type: in vivo, Wistar rats; details: 30 μg/kg, 30 min before stress
Procedure: Inhibiting effect on restraint stress-induced diarrhea (intraabdominal administration): This test was conducted in the same manner as Test 3. Nine- to ten-week-oldmale Wistar rats fasted overnight were placed in a stress case and their feces produced in 5 hours were observed. Of 15 rats, 14 developed diarrhea. The inhibiting effect on diarrhea was measured by intraabdominal administration of a test compound 30 minutes prior to placement in the stress cage.

Acute toxicity (oral) = type: in vivo; details: rats; for LD50: rat, in vivo; for cases of death: 1000 mg/kg
[2] = system: restrained stress-induced diarrhea; test: Inhibiting effect on restrained stress-induced diarrhea (oral administration); type: in vivo, Wistar rats; details: 1 hour before stress
Procedure: Inhibiting effect on restrained stress-induced diarrhea (oral administration): This test was conducted following the method of Miyata, et al. […] Nine-week-old male Wistar rats fasted overnight were placed in a stress cage and their feces produced in 5 hours were observed. Of 15 rats, 14 developed diarrhea. The inhibiting effect on diarrhea was measured by oral administration of the test compounds one hour prior to placement in the stress cage.

[3] = system: duodenal extension reflex; test: Inhibiting effect on duodenal extension reflex; type: in vivo, Wistar rats; details: for Inhibition rate, 5-min value / Inhibition rate, 15-min value / Inhibition rate, 25-min value: intravenous
Excerpt: Inhibiting effect on duodenal extension reflex: Unfasted male Wistar rats with a body weight of 300-390 g were opened at the abdomen under urethane anesthesia, and ligated at 2 locations, the gastric pyloric region and 3-4 cm directly under it, to create a duodenal loop. […] The beaker was raised at once to create a internal loop pressure of 75 cm H2, and the depressor reflex and effect of the test agent administration were observed. […] The test agent was then administrated intravenously, and at 5, 15 and 25 minutes after administration an extension stimulus was applied, the depressor reflex was observed, and the differences were expressed as percentages with respect to the initial value, to give the inhibition rates.

gastric emptying = test: Accelerating effect on gastric emptying (cisplatin-reduced); type: in vivo, SD rats; details: for Gastric evacuation: oral, 30 min before cisplatin 10 mg/kg
Procedure: Accelerating effect on gastric emptying
Seven-week-old male SD rats which had been fasted for 24 hours were used. The effect on gastric emptying was studied in rats with reduced gastric emptying due to cisplatin. The rats were intragastrically administered the test feed (1.5% aqueous CMC solution containing 50 mg/100 ml phenol red) at 1.5 ml/rat, and after 15 minutes the stomachs were dissected, the residual amount of phenol red in the stomach was measured, in order to determine the gastric emptying in normal animals. A cisplatin-induced reduction in gastric emptying was measured by intraabdominal administration of cisplatin (10 mg/kg) 30 minutes prior to supplying the test feed. The test compound was also administered orally 30 minutes prior to the cisplatin administration to study the accelerating effect of the test compound on gastric emptying.

[4] = system: cisplatin-induced vomiting; test: Inhibiting effect on cisplatin-induced vomiting; type: in vivo, ferrets; details: oral, 1 hour before cisplatin; for No. of retching / No. of vomiting animals/No. of animals used / No. of vomitings: 6 hours
Excerpt: Inhibiting effect on cisplatin-induced vomiting:
Vomiting was induced in ferrets by administration of cisplatin. The inhibiting effect on this vomiting was observed. […] The test agents were orally administered one hour prior to cisplatin administration. […]

[5] = system: 5-HT3 receptors in the upper intestine; test: Antagonism against 5-HT-induced intestinal secretion (jejunal loop); type: in vivo, wister rats; details: for net fluid transfer in jejunal loop: caudal vein, 15 min before serotonin
Procedure: Antagonism against 5-HT-induced intestinal secretion:
Male wister rats (8-11 weeks old) were anesthetized with urethane, and the abdomen was opened a polyethylene catheter was placed in the jejunum 5 cm distal to the duodenojejunal flexure and fixed by ligation. The second ligation was made at a distal point of 20 cm to create a jejunal loop. Two ml of physiological saline was injected into this loop and initiated continuous injection of physiological saline (0.1 ml/min) or 5-HT (3 μg/0.1 ml/kg/min, serotonin treated group) into the mesenteric artery through the mesenteric artery gastric branch, and after 30 minutes the jejunal loop was isolated, the residual fluid amount was measured, and the net fluid transfer per gram of tissue weight was calculated. The net fluid transfer was expressed as the fluid amount (weight) change in 30 minutes per jejunal tissue weight (g/30 min/g). A "+" was assigned when the fluid amount increased compared with 2 ml of physiological saline injected into the loop, and "-" when it decreased

[6] = molecular target: T1, Intestinal 5-HT3 receptor (Cavia porcellus, UniProt O70212); test: Intestinal 5-HT3 receptor antagonism (isolated distal colon, 2-methylserotonin-induced contraction); type: cell-based, Hartley guinea pigs; details: for Kb: isolated distal colon, 2-methylserotonin contraction
T1 sequence (O70212 24-490 limits assumed): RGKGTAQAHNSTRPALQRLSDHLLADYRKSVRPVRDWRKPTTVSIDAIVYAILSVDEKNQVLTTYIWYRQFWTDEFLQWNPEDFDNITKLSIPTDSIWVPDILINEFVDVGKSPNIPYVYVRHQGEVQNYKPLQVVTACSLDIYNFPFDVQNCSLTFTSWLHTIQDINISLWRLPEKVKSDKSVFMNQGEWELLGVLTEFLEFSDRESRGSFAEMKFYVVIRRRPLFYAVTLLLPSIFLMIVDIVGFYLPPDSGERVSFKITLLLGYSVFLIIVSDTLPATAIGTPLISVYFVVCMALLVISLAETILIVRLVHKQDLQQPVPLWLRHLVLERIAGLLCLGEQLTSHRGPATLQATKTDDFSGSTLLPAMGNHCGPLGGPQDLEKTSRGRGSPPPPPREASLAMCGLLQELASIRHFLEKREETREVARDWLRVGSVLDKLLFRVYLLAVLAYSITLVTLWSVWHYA
Procedure: The test was conducted following the method of Miyata, et al. (The Journal of Pharmacology and Experimental Therapeutics Vol.259, No:1, 15 (1991)).
Male Hartley guinea pigs with a body weight of 300-400 g were bled to death, the distal colon (3-10 cm from the anus) was isolated and suspended in a Magnus tube filled with Krebs solution aerated with a mixed gas (95% O2, 5% CO2), and subjected to a tensile load of 1 g. After constant contraction by cumulative addition of 2-methylserotonin (10^-6 -10^-4 M) was obtained, the test agent was added and the pA2 value of the test agent was calculated based on its inhibiting action on the initial value.
The value (pA2 value) is defined as the negative logarithm (-logM) of the molar concentration (M) of the antagonist required to reduce the effect of serotonin at a concentration of 2 times the 2-methylserotonin concentration (EC50) necessary to induce half of the maximum contraction reaction, to an effect induced by an EC50 of serotonin.

[7] = molecular target: T2, 5-HT3 receptors in the heart (Rattus norvegicus, UniProt P35563); test: Antagonism against Von Bezold-Jarisch reflex (BJ reflex); type: in vivo, SD rats; details: 5 min before serotonin 30 μg/kg, read-out: ID50 (the source's name)
T2 construct: from tissue; host or cells: living anesthetized male SD rats (in vivo)
T2 sequence (P35563 24-483): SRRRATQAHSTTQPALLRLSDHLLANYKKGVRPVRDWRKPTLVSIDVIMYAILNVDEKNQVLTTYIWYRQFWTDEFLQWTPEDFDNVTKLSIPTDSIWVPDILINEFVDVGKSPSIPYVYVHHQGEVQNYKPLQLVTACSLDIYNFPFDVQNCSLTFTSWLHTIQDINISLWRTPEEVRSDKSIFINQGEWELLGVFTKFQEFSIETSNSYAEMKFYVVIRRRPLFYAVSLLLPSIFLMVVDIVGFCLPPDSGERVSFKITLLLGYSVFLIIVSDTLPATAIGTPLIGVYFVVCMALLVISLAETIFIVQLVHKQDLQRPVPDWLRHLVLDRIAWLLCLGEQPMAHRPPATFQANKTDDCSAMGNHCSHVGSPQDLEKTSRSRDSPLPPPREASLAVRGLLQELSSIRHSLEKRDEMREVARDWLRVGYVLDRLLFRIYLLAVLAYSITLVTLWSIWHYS
Procedure: Antagonism against Von Bezold-Jarisch reflex (BJ reflex):
The pulse was determined by measuring the electrocardiogram R waves (secondary induction) with an instantaneous pulse rate meter.

stress-related diarrhea = details: animal models; J. Pharmacol. Exp. Ther. 261, 297 (1992); cited from earlier work
[8] = read-out: M (molar concentration of antagonist)

SMILES: Cl.O=C(C1CCc2nc[nH]c2C1)N1CC(c2ccccc2)c2ccccc21 (stereo not drawn) [Compound 4, 5-[(3-phenylindolin-1-yl)carbonyl]-4,5,6,7-tetrahydrobenzimidazole hydrochloride]
Inhibition rate [1]: 90% | No. of animals with diarrhea/No. of animals used [1]: 1/10 | LD50 (Acute toxicity (oral)): ≥ 1000 mg/kg | cases of death (Acute toxicity (oral)): no cases of death | Inhibition rate ([2]; 30 μg/kg): 70% | No. of animals with diarrhea/No. of animals used ([2]; 30 μg/kg): 3/10 | Inhibition rate, 5-min value ([3]; 1 μg/kg): 21.7% | Inhibition rate, 15-min value ([3]; 1 μg/kg): 6.7% | Inhibition rate, 25-min value ([3]; 1 μg/kg): 20.2% | Inhibition rate, 5-min value ([3]; 10 μg/kg): 16.3% | Inhibition rate, 15-min value ([3]; 10 μg/kg): 17.8% | Inhibition rate, 25-min value ([3]; 10 μg/kg): 21.1% | inhibition of intestinal sensitivity to dilatation / alleviation of abdominal pain (in words) ([3]; rat, in vivo): inhibited intestinal sensitivity to dilatation stimulation more strongly than YM-060 | inhibition of cisplatin-induced gastric emptying reduction (in words) (gastric emptying; 0.3 μg/kg): inhibited similar cisplatin-induced gastric emptying reduction | Gastric evacuation (gastric emptying; 0.3 μg/kg): 73.3% | amount needed relative to YM-060 for similar inhibition of gastric emptying reduction (gastric emptying; 0.3 μg/kg, relative to the amount of YM-060): less than 1/3 | gastric emptying acceleration (in words) (gastric emptying; 1.0 μg/kg): gastric emptying was further accelerated | Gastric evacuation (gastric emptying; 1.0 μg/kg): 82.4% | Latency* (time to initial retching) ([4]; 0.3 μg): 114.0 min | Latency** (time to initial vomiting) ([4]; 0.3 μg): 114.0 min | No. of retching ([4]; 0.3 μg): 139.0 | No. of vomiting animals/No. of animals used ([4]; 0.3 μg): 2/2 | No. of vomitings ([4]; 0.3 μg): 7.0 | Latency* (time to initial retching) ([4]; 1.0 μg): > 289.7 min | Latency** (time to initial vomiting) ([4]; 1.0 μg): 293.0 min | No. of retching ([4]; 1.0 μg): 14.7 | No. of vomiting animals/No. of animals used ([4]; 1.0 μg): 1/3 | No. of vomitings ([4]; 1.0 μg): 1.0 | net fluid transfer in jejunal loop ([5]; 0.1 μg/kg): -0.50 ± 0.07 g/30 min/g tissue weight | net fluid transfer in jejunal loop ([5]; 1.0 μg/kg): -0.80 ± 0.09 g/30 min/g tissue weight | activity in the colon compared to YM-060 and YM-114 ([6]; colon, relative to YM-060 and YM-114): about 15 -fold | Kb [6, 8]: 0.3 nM | Kb ([6]; read-out: pA2 (converted)): 0.251 nM | ED50 ([7]; iv): 0.00039 µmol/kg

SMILES: NCCc1c[nH]c2ccc(O)cc12 [serotonin, 5-hydroxytryptamine]
acceleration in intestinal secretion ([5]; serotonin administration versus control): 0.19 g/30 min/g tissue weight

SMILES: Cl.O=C(C1CCc2nc[nH]c2C1)N1CC(c2ccccc2)c2ccccc21 (stereo not drawn) [Compound 2, 5-[(3-phenylindolin-1-yl)carbonyl]-4,5,6,7-tetrahydrobenzimidazole hydrochloride]
Kb ([6]; read-out: pA2 (converted)): 1 nM | ED50 ([7]; iv): 0.3 µg/kg

SMILES: CN1C2CCCC1CC(NC(=O)c1nn(C)c3ccccc13)C2 (stereo not drawn) [Granisetron, N-(endo-9-methyl-9-azabicyclo [3,3,1]nona-3-yl)-l-methyl-indazol-3-carboxamide hydrochloride]
suppression of stress-related diarrhea (in words) (stress-related diarrhea): suppress stress-related diarrhea

Kb [6, 8]: 0.05 nM | Kb ([6]; read-out: pA2 (converted)): 0.126 nM
SMILES: O=C(C1CCc2nc[nH]c2C1)N1CC(c2ccccc2O)c2ccccc21 (stereo not drawn) [Compound 10, 5-[(3-(2-hydroxyphenyl)indolin-1-yl)carbonyl]-4,5,6,7-tetrahydrobenzimidazole hydrochloride]

SMILES: Cl.O=C(C1CCc2nc[nH]c2C1)N1CC(c2cccc(O)c2)c2ccccc21 (stereo not drawn) [Compound 6, 5-[(3-(3-hydroxyphenyl)indolin-1-yl)carbonyl]-4,5,6,7-tetrahydrobenzimidazole hydrochloride]
LD50 (Acute toxicity (oral)): ≥ 1000 mg/kg | cases of death (Acute toxicity (oral)): no cases of death | Inhibition rate ([2]; 100 μg/kg): 100% | No. of animals with diarrhea/No. of animals used ([2]; 100 μg/kg): 0/5 | Kb ([6]; read-out: pA2 (converted)): 0.1 nM | ED50 ([7]; iv): 0.15 µg/kg

Kb ([6]; read-out: pA2 (converted)): 3.98 nM | ED50 ([7]; intravenous): 0.15 µg/kg
SMILES: O=C([C@@H]1CCc2[nH]cnc2C1)N1CCc2ccccc21 [YM-114, reference compound]
Inhibition rate ([2]; 30 μg/kg): 30% | No. of animals with diarrhea/No. of animals used ([2]; 30 μg/kg): 7/10

SMILES: Cl.O=C(C1CCc2nc[nH]c2C1)N1CC(c2ccc(O)cc2)c2ccccc21 (stereo not drawn) [Compound 8, 5-[(3-(4-hydroxyphenyl)indolin-1-yl)carbonyl]-4,5,6,7-tetrahydrobenzimidazole hydrochloride]
LD50 (Acute toxicity (oral)): ≥ 1000 mg/kg | cases of death (Acute toxicity (oral)): no cases of death | Inhibition rate ([2]; 30 μg/kg): 70% | No. of animals with diarrhea/No. of animals used ([2]; 30 μg/kg): 2/10 | Kb ([6]; read-out: pA2 (converted)): 0.1 nM | ED50 ([7]; iv): 0.13 µg/kg

Kb [6, 8]: 0.13 nM | Kb ([6]; read-out: pA2 (converted)): 0.1 nM
SMILES: COc1cccc(C2CN(C(=O)C3CCc4nc[nH]c4C3)c3ccccc32)c1 (stereo not drawn) [Compound 12, 5-[(3-(3-methoxyphenyl)indolin-1-yl)carbonyl]-4,5,6,7-tetrahydrobenzimidazole hydrochloride]

SMILES: CN1[C@@H]2CC[C@H]1C[C@@H](OC(=O)c1c[nH]c3ccccc13)C2 [Tropisetron, endo-8-methyl-8-azabicyclo[3,2,1]octa-3-yl indol-3-ylcarboxylate]
Inhibition rate, 5-min value ([3]; 10 μg/kg): 42.7% | Inhibition rate, 15-min value ([3]; 10 μg/kg): 44.1% | Inhibition rate, 25-min value ([3]; 10 μg/kg): 30.6%

SMILES: Cc1nccn1CC1CCc2c(c3ccccc3n2C)C1=O (stereo not drawn) [Ondansetron, 1,2,3,4-tetrahydro-9-methyl-3-[(2-methyl-1H-imidazol-1-yl)methyl]-4H-carbazol-4-one-hydrochloride dihydrate]
suppression of stress-related diarrhea (in words) (stress-related diarrhea): suppress stress-related diarrhea

Kb ([6]; read-out: pA2 (converted)): > 10 nM
SMILES: CC1CN(C(=O)C2CCc3[nH]cnc3C2)c2ccccc21 (stereo not drawn) [A, reference compound]
